Values of other authors, collected in US20210369646A1, “Composition for local tumescent anesthesia” (priority 2020, published 2021).
Read-outs that look alike come from different tables or passages of the source. Each block holds one compound with its values, some of them ahead of it.

What was measured:
[1] = tested on: alpha 1 acid glycoprotein; details: bound to alpha 1 acid glycoprotein almost entirely
plasminogen = plasminogen (Homo sapiens, UniProt P00747)
plasminogen, sequence (P00747 20-810 limits assumed): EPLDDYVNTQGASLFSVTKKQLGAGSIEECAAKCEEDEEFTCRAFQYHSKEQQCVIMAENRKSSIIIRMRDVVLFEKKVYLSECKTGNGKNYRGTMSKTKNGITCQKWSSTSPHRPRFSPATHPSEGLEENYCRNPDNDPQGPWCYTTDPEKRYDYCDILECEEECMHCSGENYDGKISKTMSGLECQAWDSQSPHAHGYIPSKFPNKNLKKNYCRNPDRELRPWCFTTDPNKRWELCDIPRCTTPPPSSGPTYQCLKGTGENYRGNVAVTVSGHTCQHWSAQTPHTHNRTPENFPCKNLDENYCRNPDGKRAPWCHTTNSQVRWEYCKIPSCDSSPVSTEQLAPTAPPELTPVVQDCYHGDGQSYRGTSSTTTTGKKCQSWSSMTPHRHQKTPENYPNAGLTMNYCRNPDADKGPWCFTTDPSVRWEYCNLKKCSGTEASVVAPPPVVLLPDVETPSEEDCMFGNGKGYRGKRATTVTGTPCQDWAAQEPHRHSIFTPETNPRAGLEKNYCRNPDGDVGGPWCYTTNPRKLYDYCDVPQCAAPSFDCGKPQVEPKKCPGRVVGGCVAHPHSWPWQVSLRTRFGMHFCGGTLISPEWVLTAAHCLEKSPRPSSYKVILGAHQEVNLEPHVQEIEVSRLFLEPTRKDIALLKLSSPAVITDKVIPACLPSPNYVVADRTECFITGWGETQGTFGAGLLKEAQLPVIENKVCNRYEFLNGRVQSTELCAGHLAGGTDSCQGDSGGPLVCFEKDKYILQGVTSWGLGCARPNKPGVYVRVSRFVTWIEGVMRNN

excreted through the kidneys into the urine (in vivo): ~86%
transformed into 3-hydroxy-ropivacaine (aromatic hydroxylation) (liver, share of all anesthetic agent): 99%
free protein form [1]: 6%
Compound: CCCN1CCCC[C@H]1C(=O)Nc1c(C)cccc1C [Ropivacaine]

total doses excreted into the urine (after next 18 hours): 50%
total doses excreted into the urine (by the first 6 hours): 50%
middle lifetime (in vivo): 20 s
principal metabolite: conjugated metanephrine (in vivo): 40%
principal metabolite: vanillylmandelic acid (in vivo): 40%
maximum concentration after a subcutaneous injection (time) (subcutaneous injection): 20 to 40 min
Compound: CNC[C@H](O)c1ccc(O)c(O)c1 [Epinephrine]

affinity to plasminogen (plasminogen): high affinity
middle lifetime (after the administration): 11000 s
excreted through the kidneys into the urine without a conjugated form (by the first 24 hours): 90%
plasmatic protein bound (plasmatic protein): 3%
free protein form (plasmatic protein; in words): no free protein form
Compound: NC[C@H]1CC[C@H](C(=O)O)CC1 [Tranexamic acid]
